Data published in patent publication US20130040882A1, “USE OF FIBROBLAST GROWTH FACTOR FRAGMENTS” (NOVARTIS AG, priority 2003, published 2013).

Test system: uterine gene expression
Assay: Gene expression profiling (HGU133A) in the uterus of ovariectomized monkeys treated with estradiol, tamoxifen or raloxifene
Format: in vivo, cynomolgus monkeys (Macaca fascicularis)
Conditions: uterus, OVX monkeys

CC/C(=C(\c1ccccc1)c1ccc(OCCN(C)C)cc1)c1ccccc1 [tamoxifen]
Fold change relative to SHAM control: Growth associated protein 43: 0.8 fold
Fold change relative to SHAM control: H2A histone family, member Y: 1.4 fold
Fold change relative to SHAM control: Heparan sulfate proteoglycan 2 (perlecan): 1.0 fold
Fold change relative to SHAM control: Histone H2A.F/Z variant: 1.4 fold
Fold change relative to SHAM control: Insulin-like growth factor binding protein 2, 36 kda: 1.7 fold
Fold change relative to SHAM control: Insulin-like growth factor binding protein 5: 1.0 fold
Fold change relative to SHAM control: Integrin, beta 5: 0.9 fold
Fold change relative to SHAM control: Intercrine-alpha, mrna sequence: 0.9 fold
Fold change relative to SHAM control: LDL receptor adaptor protein: 1.6 fold
Fold change relative to SHAM control: LIM and senescent cell antigen-like domains 1: 1.1 fold
Fold change relative to SHAM control: Laminin, beta 1: 1.0 fold
Fold change relative to SHAM control: Latent transforming growth factor beta binding protein 1: 1.2 fold
Fold change relative to SHAM control: Matrix metalloproteinase 19: 0.3 fold
Fold change relative to SHAM control: Mitogen-activated protein kinase kinase kinase kinase 4: 1.0 fold
Fold change relative to SHAM control: Nidogen (enactin): 1.4 fold
Fold change relative to SHAM control: Osteoglycin (osteoinductive factor, mimecan): 0.8 fold
Fold change relative to SHAM control: Peroxiredoxin 1: 1.4 fold
Fold change relative to SHAM control: Phosphatase and tensin homolog (mutated in multiple advanced cancers 1): 1.0 fold
Fold change relative to SHAM control: Phospholipid transfer protein: 0.9 fold
Fold change relative to SHAM control: Pituitary tumour-transforming 1 interacting protein: 0.9 fold
Fold change relative to SHAM control: Procollagen C-endopeptidase enhancer: 1.1 fold
Fold change relative to SHAM control: Procollagen-proline, 2-oxoglutarate 4-dioxygenase (proline 4-hydroxylase), alpha polypeptide II: 1.0 fold
Fold change relative to SHAM control: Progesterone receptor: 1.5 fold
Fold change relative to SHAM control: Protein tyrosine kinase 9: 1.1 fold
Fold change relative to SHAM control: SET domain, bifurcated 1: 1.4 fold
Fold change relative to SHAM control: SPARC-like 1 (mast9, hevin): 0.8 fold
Fold change relative to SHAM control: Secreted frizzled-related protein 1: 1.1 fold
Fold change relative to SHAM control: Secreted frizzled-related protein 4: 1.4 fold
Fold change relative to SHAM control: Secreted protein, acidic, cysteine-rich (osteonectin): 1.0 fold
Fold change relative to SHAM control: Serine (or cysteine) proteinase inhibitor, clade H (heat shock protein 47), member 1, (collagen binding protein 1): 1.1 fold
Fold change relative to SHAM control: Solute carrier family 22 (organic cation transporter), member 1-like: 1.5 fold
Fold change relative to SHAM control: Solute carrier family 25 (mitochondrial carrier; adenine nucleotide translocator), member 5: 1.5 fold
Fold change relative to SHAM control: Stem cell growth factor; lymphocyte secreted C-type lectin: 0.9 fold
Fold change relative to SHAM control: Tenascin C (hexabrachion): 2.9 fold
Fold change relative to SHAM control: Testis Enhanced Gene Transcript (Bax Inhibitor 1): 1.5 fold
Fold change relative to SHAM control: Thioredoxin interacting protein: 0.9 fold
Fold change relative to SHAM control: Transforming growth factor, beta-induced, 68 kda: 1.0 fold
Fold change relative to SHAM control: Ubiquinol-cytochrome c reductase, Rieske iron-sulfur polypeptide 1: 1.1 fold
Fold change relative to SHAM control: Wingless-type MMTV integration site family, member 2B: 1.1 fold
Fold change relative to SHAM control: Wingless-type MMTV integration site family, member 16: 1.0 fold
Fold change relative to OVX: Insulin receptor (Table 46): 0.7 fold
Fold change relative to SHAM control: Insulin receptor (Table 46): 1.2 fold
Fold change relative to OVX: Insulin receptor (Table 51): 0.7 fold
Fold change relative to SHAM control: Insulin receptor (Table 51): 1.2 fold
Fold change relative to OVX: Fibronectin 1 (entry with OVX average 39): 2.3 fold
Fold change relative to OVX: Bone morphogenetic protein 1 (entry with OVX average 79): 1.9 fold
Fold change relative to OVX: Bone morphogenetic protein 1 (entry with OVX average 93): 2.2 fold
Fold change relative to OVX: Insulin-like growth factor 1 (somatomedin C) (entry with OVX average 102): 3.7 fold
Fold change relative to OVX: Fibrillin 1 (Marfan syndrome) (entry with OVX average 124): 1.9 fold
Fold change relative to OVX: Collagen, type I, alpha 2 (entry with OVX average 154): 6.1 fold
Fold change relative to OVX: Insulin-like growth factor 1 (somatomedin C) (entry with OVX average 156): 4.6 fold
Fold change relative to OVX: Solute carrier family 2 (facilitated glucose/fructose transporter), member 5 (entry with OVX average 171): 2.2 fold
Fold change relative to OVX: Solute carrier family 2 (facilitated glucose/fructose transporter), member 5 (entry with OVX average 176): 2.1 fold
Fold change relative to OVX: Collagen, type IV, alpha 1 (entry with OVX average 182): 3.2 fold
Fold change relative to OVX: Cyclin-dependent kinase inhibitor 1C (p57, Kip2) (entry with OVX average 224): 0.7 fold
Fold change relative to OVX: Insulin-like growth factor 1 (somatomedin C) (entry with OVX average 310): 4.8 fold
Fold change relative to OVX: Fibronectin 1 (entry with OVX average 419): 2.0 fold
Fold change relative to OVX: Cyclin-dependent kinase inhibitor 1C (p57, Kip2) (entry with OVX average 527): 0.5 fold
Fold change relative to OVX: Fibronectin 1 (entry with OVX average 586): 1.9 fold
Fold change relative to OVX: Fibronectin 1 (entry with OVX average 648): 1.9 fold
Fold change relative to OVX: Collagen, type IV, alpha 1 (entry with OVX average 690): 2.7 fold
Fold change relative to OVX: Fibronectin 1 (entry with OVX average 757): 1.6 fold
Fold change relative to OVX: Cyclin-dependent kinase inhibitor 1C (p57, Kip2) (entry with OVX average 762): 0.5 fold
Fold change relative to OVX: ATP synthase, H+ transporting, mitochondrial F0 complex, subunit c (subunit 9) isoform 3 (entry with OVX average 811): 2.0 fold
Fold change relative to OVX: Fibrillin 1 (Marfan syndrome) (entry with OVX average 874): 2.1 fold
Fold change relative to OVX: ATP synthase, H+ transporting, mitochondrial F0 complex, subunit c (subunit 9) isoform 3 (entry with OVX average 1007): 1.9 fold
Fold change relative to OVX: Collagen, type III, alpha 1 (Ehlers-Danlos syndrome type IV, autosomal dominant) (entry with OVX average 1084): 3.4 fold
Fold change relative to OVX: Collagen, type I, alpha 2 (entry with OVX average 2757): 3.7 fold
Fold change relative to OVX: Collagen, type III, alpha 1 (Ehlers-Danlos syndrome type IV, autosomal dominant) (entry with OVX average 3445): 2.9 fold
Fold change relative to OVX: H3 histone, family 3A (entry with OVX average 9495): 1.4 fold
Fold change relative to OVX: H3 histone, family 3A (entry with OVX average 9692): 1.4 fold
Fold change relative to SHAM control: Fibronectin 1 (entry with SHAM average 100): 0.9 fold
Fold change relative to SHAM control: Bone morphogenetic protein 1 (entry with SHAM average 143): 1.0 fold
Fold change relative to SHAM control: Cyclin-dependent kinase inhibitor 1C (p57, Kip2) (entry with SHAM average 201): 0.8 fold
Fold change relative to SHAM control: Bone morphogenetic protein 1 (entry with SHAM average 205): 1.0 fold
Fold change relative to SHAM control: Insulin-like growth factor 1 (somatomedin C) (entry with SHAM average 226): 1.7 fold
Fold change relative to SHAM control: Fibrillin 1 (Marfan syndrome) (entry with SHAM average 236): 1.0 fold
Fold change relative to SHAM control: Solute carrier family 2 (facilitated glucose/fructose transporter), member 5 (entry with SHAM average 291): 1.3 fold
Fold change relative to SHAM control: Solute carrier family 2 (facilitated glucose/fructose transporter), member 5 (entry with SHAM average 317): 1.2 fold
Fold change relative to SHAM control: Insulin-like growth factor 1 (somatomedin C) (entry with SHAM average 417): 1.7 fold
Fold change relative to SHAM control: Collagen, type IV, alpha 1 (entry with SHAM average 436): 1.3 fold
Fold change relative to SHAM control: Cyclin-dependent kinase inhibitor 1C (p57, Kip2) (entry with SHAM average 459): 0.6 fold
Fold change relative to SHAM control: Collagen, type I, alpha 2 (entry with SHAM average 493): 1.9 fold
Fold change relative to SHAM control: Insulin-like growth factor 1 (somatomedin C) (entry with SHAM average 581): 2.6 fold
Fold change relative to SHAM control: Cyclin-dependent kinase inhibitor 1C (p57, Kip2) (entry with SHAM average 660): 0.6 fold
Fold change relative to SHAM control: Fibronectin 1 (entry with SHAM average 920): 0.9 fold
Fold change relative to SHAM control: ATP synthase, H+ transporting, mitochondrial F0 complex, subunit c (subunit 9) isoform 3 (entry with SHAM average 1045): 1.6 fold
Fold change relative to SHAM control: Fibronectin 1 (entry with SHAM average 1089): 1.0 fold
Fold change relative to SHAM control: Collagen, type IV, alpha 1 (entry with SHAM average 1143): 1.6 fold
Fold change relative to SHAM control: Fibronectin 1 (entry with SHAM average 1288): 0.9 fold
Fold change relative to SHAM control: Fibronectin 1 (entry with SHAM average 1301): 0.9 fold
Fold change relative to SHAM control: ATP synthase, H+ transporting, mitochondrial F0 complex, subunit c (subunit 9) isoform 3 (entry with SHAM average 1355): 1.4 fold
Fold change relative to SHAM control: Fibrillin 1 (Marfan syndrome) (entry with SHAM average 1388): 1.3 fold
Fold change relative to SHAM control: Collagen, type III, alpha 1 (Ehlers-Danlos syndrome type IV, autosomal dominant) (entry with SHAM average 2992): 1.2 fold
Fold change relative to SHAM control: Collagen, type III, alpha 1 (Ehlers-Danlos syndrome type IV, autosomal dominant) (entry with SHAM average 7354): 1.4 fold
Fold change relative to SHAM control: Collagen, type I, alpha 2 (entry with SHAM average 7758): 1.3 fold
Fold change relative to SHAM control: H3 histone, family 3A (entry with SHAM average 9408): 1.4 fold
Fold change relative to SHAM control: H3 histone, family 3A (entry with SHAM average 10239): 1.3 fold
